“Also recorded” adds a separate entry of the source.
Legend:
[1] = tested on: Mycobacterium tuberculosis (Mtb); conditions: compared with natural tunicamycin; cited from earlier work
[2] = tested on: Mycobacterium avium subsp. paratuberculosis (MAP) strain K-10; assay: Antibiotic disc assay on agar plates, MAP strain K-10; conditions: antibiotic discs on the plate for 13 days, FIG. 15C
[3] = tested on: Mycobacterium smegmatis; assay: Microtiter plate bioassay, mycobacterial growth inhibition (MIC); type: cell-based; conditions: M. smegmatis grown in TYG for 6 days at 37° C., FIG. 16
Method: (§1) In each plate, left two columns are treated with DMSO, center two columns are treated with tunicamycin; right two panels are treated with TunR2. The concentration in μg/mL is indicated on the right. Arrows show the concentration at which there is mycobacterial growth inhibition (MIC), or biofilm formation is blocked (MBFC).
The inventors have shown that tunicamycins (including the modified TunR1, TunR2, and OAT-type tunicamycins) have potent antimycobacterial activity (for example, MIC 0.5 μg·mL^−1 for TunR2 against M. smegmatis, as shown in FIG. 16.
(§2) Tunicamycins are known to inhibit the biosynthesis of bacterial cell wall, for example by blocking the peptidoglycan and teichoic layers. The Mycobacterium genus is characterized by unusual and complex cell walls composed of three distinct layers, peptidoglycan (PG), arabinogalactan (AG) and mycolic acids (MA), which are well characterized targets for antimycobacterial drugs (K A Abrahams & G S Besra, 2018, “Mycobacterial cell wall biosynthesis: a multifaceted antibiotic target,” Parasitology 145: 116-133). The MA and AG are also components of mycobacterial biofilms, an extracellular matrix with various pathogenic functions.

[4] = tested on: Mycobacterium smegmatis biofilm; assay: Microtiter plate bioassay, biofilm formation (MBFC); type: cell-based; conditions: M. smegmatis grown in TYG for 6 days at 37° C., FIG. 16
Method: as §1, §2

[5] = tested on: cultured mammalian cell lines (HEK293, HepG2, Raji cells); conditions: cell line not given; cited from earlier work

| Molecule | activity on MAP strain K-10 [2] | also measured |
| --- | --- | --- |
| CCCCCCCCC(=O)N[C@H]1[C@H](O[C@H]2O[C@H](CO)[C@@H](O)[C@H](O)[C@H]2NC(=O)CCCCCCCC)O[C@H](C[C@@H](O)[C@H]2O[C@@H](n3ccc(=O)[nH]c3=O)[C@H](O)[C@@H]2O)[C@H](O)[C@@H]1O [Tun-9,9] |  | potency relative to natural tunicamycin against Mtb [1]: 5 times |
| CC(C)CCOc1ccc(NC(=S)Nc2ccc(OCCC(C)C)cc2)cc1 [thiocarlide] | resistant |  |
| CC1(C)S[C@@H]2[C@H](NC(=O)C(C(=O)O)c3ccccc3)C(=O)N2[C@H]1C(=O)O (stereo partly shown) [carbenicillin] | resistant | activity on MAP strain K-10 ([2]; listed as Carbenicillin): low inhibitions at high concentrations |
| CO/N=C(\C(=O)N[C@@H]1C(=O)N2C(C(=O)[O-])=C(C[n+]3cccc4c3CCCC4)CS[C@H]12)c1csc(N)n1 [cefquinome] | resistant; also recorded: low inhibitions at high concentrations |  |
| tunicamycin | perform well | MIC (mycobacterial growth inhibition) [3]: 2 µg/mL; Minimal Biofilm Formation Concentration, MBFC [4]: 1 µg/mL; LD50 [5]: > 400 µg/mL |
| CCCCCCCCC1=C(CCCCCCCC(=O)O)C1 [sterulic acid] | resistant |  |

From patent publication US12245589B2, “Omega-alicyclic tunicamycins and analogs” (priority 2022, dated 2025)
